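Results reflect a 48-hour exposure of cells in 96-well plates to compound at five concentrations. The concentration for 50% growth inhibition is given as GI50.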 The source made the active and inactive calls. Cut-off read from the data, not from the text of the source: active = GI50 up to about 1.1 µM and inactive = higher.

The values below come from ChEMBL document CHEMBL1201862, “PubChem BioAssay data set” (2004).

Holding throughout (assay): NCI-60 cell line screen, 48 h
In assay [1] the test system is A549.
Assay [2] has as its system 786-0.
Assay [3] concerns OVCAR-4.
For assay [4], the system named is EKVX.
Assay [5] concerns SN12C.
Assay [6] concerns MDA-MB-435.
Assay [7] has as its system RPMI-8226.
The subject of assay [8] is SK-OV-3.
In assay [9] the test system is COLO 205.
Assay [10] has as its system SW-620.
Assay [11] relates to HCT-116.
Assay [12] relates to IGROV-1.
Assay [13] has as its system UACC-257.
The test system of assay [14] is U-251.
For assay [15], the system named is HL-60.
Assay [16] concerns NCI-H226.
The subject of assay [17] is HT-29.
Assay [18] deals with CCRF-CEM.
The test system of assay [19] is HCT-15.
The subject of assay [20] is MCF7.

For `COc1c(C)c2c(c(O)c1C/C=C(\C)CCC(=O)O)C(=O)OC2` [MYCOPHENOLIC ACID], the GI50 is 659 nM (active) in [1]; 667 nM (active) in assay [2]; > 21800 nM (inactive) in [3]; > 100000 nM (inactive) in assay [4]; 4100 nM (inactive) in assay [5]; 871 nM (active) in assay [6]. Further, the GI50 in assay [7] is 1700 nM (inactive); in assay [8], 1430 nM (inactive); in assay [9] it was 1080 nM (active); in assay [10] it was 571 nM (active); in assay [11], 465 nM (active); in [12], 1180 nM (inactive). In addition, the GI50 in assay [13] is 4510 nM (inactive); in [14] it was 342 nM (active); in assay [15] it was 1430 nM (inactive); in assay [16], > 46900 nM (inactive); in assay [17] it was 867 nM (active); in assay [18] it was 490 nM (active). Also, the GI50 in [19] was 423 nM; in [20], 376 nM (active).

Take `CC(=O)O[C@@H]1CO[C@H]2O[C@H]3[C@@H](C(C=O)=C[C@H](O)[C@@H]4C5=C(C(C)C)CC[C@]5(C)CC[C@@]34C)[C@@]2(O)C1=O` [STRIATIN E]: the GI50 in assay [1] was 805 nM (active); in [2], 112 nM (active); in assay [3], 241 nM (active); in assay [4], 359 nM (active); in assay [5], 156 nM (active); in [6] it was 174 nM (active). For the same molecule, the GI50 in assay [7] was 59.2 nM (active); in [8], 3740 nM (inactive); in assay [9], 76.9 nM (active); in assay [10], 49.9 nM (active); in assay [11] it was 76 nM (active); in assay [12] it was 219 nM (active). For the same molecule, the GI50 is 219 nM (active) in [13]; 175 nM (active) in [14]; 17.5 nM (active) in assay [15]; 378 nM (active) in assay [16]; 91.8 nM (active) in [17]; < 27.1 nM (active) in assay [18]. Also, the GI50 in [19] was 200 nM; in assay [20], 217 nM (active).
